Reference: patent US20210403922A1 (CRISP-HR Therapeutics, Inc., priority 2019, published 2021)
“Also recorded” adds a separate entry of the source.

Columns and labels:
[1] = system: A549 cells; assay: Resazurin reduction assay, gRNA targeting exon 1 of HBB gene; type: cell-based, Human; details: FIG. 6B / FIG. 13A
Method: Cells are cultured in a 96-well plate and each well is seeded with about 2.5×10^4 cells. Each column of the 96-well plate receives a treatment with different plasmid respectively. […] The cells in the first column are transfected with plasmids encoding the first fusion protein as shown in FIG. 1; the cells in the second column with plasmids encoding the second fusion protein as shown in FIG. 1; the cells in the third column with plasmids encoding the third fusion protein as shown in FIG. 1; the cells in the fourth column with plasmids encoding the fourth fusion protein as shown in FIG. 1; the cells in the fifth column with plasmids encoding the fifth fusion protein as shown in FIG. 1; the cells in the sixth column with plasmids encoding the sixth fusion protein as shown in FIG. 1; the cells in the seventh column with plasmids encoding the seventh fusion protein as shown in FIG. 1; the cells in the eighth column with plasmids encoding the eighth fusion protein as shown in FIG. 1; and the cells in the ninth column with plasmids encoding the ninth fusion protein as shown in FIG. 1. […] The cells in the twelfth column are transfected with plasmids encoding GFPs. The cells in the […] are controls without any treatment.
Each of the plasmid constructs also contained a nucleotide sequence encoding a gRNA directed to recognize exon 1 of the human HBB gene. […] Three gRNA sequences as listed in Table 2 directed to recognize one of HBB gene's exon were used.
Toxicity was quantified using Resazurin as in Example 1.

[2] = system: HBB genomic region; assay: Sanger sequencing of the HBB genomic region after Cas9 and gRNA transfection; type: cell-based, Human; details: FIG. 6C / FIG. 13B, A549 cells, unmodified Cas9
[3] = system: phosphorylated 5′-double strand DNA ends; details: cited from earlier work

**Q.** With “HBB-G3: gRNA designed to target Exon 1 of the HBB gene, SEQ ID NO: 23 (guide GAGGUGAACGUGGAUGAAGU; chemistry not given here)” as the molecule, how does the “cellular toxicity of HBB gRNA guides with unmodified Cas9 (NT)” value (from here on “cellular toxicity of HBB gRNA guides”) [1] read?
**A.** higher toxicity than either HBB-G1 or HBB-G2

**Q.** And the “cellular toxicity of HBB gRNA guides” value ([1]; listed as NT HBB-G3)?
**A.** smallest normalized fold change number

**Q.** And the “cellular toxicity of HBB gRNA guides” value ([1]; listed as gRNA G3)?
**A.** highest cellular toxicity

**Q.** What about the “Cas9 cleavage and repair via NHEJ (INDELs) by Sanger sequencing” value (“Cas9 cleavage and repair via NHEJ” for short) [2] of the same molecule?
**A.** characteristic noise following Cas9 cleavage and repair via NHEJ pathways; also recorded: significant cleavage

**Q.** What about the “Cas9 cleavage and repair via NHEJ” value ([2]; listed as Cas9 HBB-G3) of the same molecule?
**A.** generation of INDELs

**Q.** With “HBB-G1: gRNA designed to target Exon 1 of the HBB gene, SEQ ID NO: 21 (guide GUAACGGCAGACUUCUCCUC; chemistry not given here)” as the molecule, how does the “Cas9 cleavage and repair via NHEJ” value [2] read?
**A.** could not be detected

B1: hExo1: human Exo1 exonuclease; N-terminal nuclease region SEQ ID NO: 1 (protein, listed as Homo sapiens)
chain: MGIQGLLQFIKEASEPIHVRKYKGQVVAVDTYCWLHKGAIACAEKLAKGEPTDRYVGFCMKFVNMLLSHGIKPILVFDGCTLPSKKEVERSRRERRQANLLKGKQLLREGKVSEARECFTRSINITHAMAHKVIKAARSQGVDCLVAPYEADAQLAYLNKAGIVQAIITEDSDLLAFGCKKVILKMDQFGNGLEIDQARLGMCRQLGDVFTEEKFRYMCILSGCDYLSSLRGIGLAKACKVLRLANNPDIVKVIKKIGHYLKMNITVPEDYINGFIRANNTFLYQLVFDPIKRKLIPLNAYEDDVDPETLSYAGQYVDDSIALQIALGNKDINTFEQIDDYNPDTAMPAHSRSHSWDDKTCQKSANVSSIWHRNYSPRPESGTVSDAPQLKE
**Q.** Which “affinity for phosphorylated 5′-double strand DNA ends as for unphosphorylated” value [3] does the source give for B1 here?
**A.** roughly 10 ×
